Drawing on US7476681B2, “17β-hydroxysteroid dehydrogenase type 3 inhibitors for the treatment of androgen dependent diseases” (Schering Corporation, priority 2002, dated 2009), this text covers melting point for one molecule.

On to `CC(=O)NCCN(C(=O)N1CCN(C(c2ccccc2)c2ccccc2)C[C@@H]1C(C)C)C1CCN(C(C)=O)CC1` [Example 16], for which the melting point lay within 90 to 92 °C.
